Each structure is given as a SMILES string. Where “and” joins values, the source holds several entries; their conditions need not be identical. Equal values may be shown once. Toxic doses and inconclusive results are not listed.

The assay relates to P388 leukemia ip, CD2F1 mice, survival T/C. The assay is described as follows: NCI In Vivo Anticancer Drug Screen. Data for tumor model P388 Leukemia (intraperitoneal) in CD2F1 (CDF1) mice. The following applies: endpoint: median survival time, higher = longer survival. Put shortly: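 Mice carrying the transplanted tumor received test compound or vehicle. Survival was recorded in each group, and the value is the treated-group measurement divided by that of the vehicle-treated control group.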

Where [1] appears, read: dose: 12.5 mg/kg/injection, schedule: Q01DX009 (ip), vehicle: saline with Tween-80.
The mark [2] stands for this setting: dose: 25.0 mg/kg/injection, schedule: Q01DX009 (ip), vehicle: saline with Tween-80.
[3] abbreviates: dose: 25.0 mg/kg/injection, schedule: Q04DX003 (ip), vehicle: saline with Tween-80.
The mark [4] stands for this setting: dose: 50.0 mg/kg/injection, schedule: Q01DX009 (ip), vehicle: saline with Tween-80.
The mark [5] stands for this setting: dose: 50.0 mg/kg/injection, schedule: Q04DX003 (ip), vehicle: saline with Tween-80.
Setting [6] is: dose: 100.0 mg/kg/injection, schedule: Q04DX003 (ip), vehicle: Klucel (hydroxypropylcellulose) (HPC).
The mark [7] stands for this setting: dose: 200.0 mg/kg/injection, schedule: Q04DX003 (ip), vehicle: Klucel (hydroxypropylcellulose) (HPC).
Setting [8] is: dose: 50.0 mg/kg/injection, schedule: Q01DX009 (ip), vehicle: Klucel (hydroxypropylcellulose) (HPC).
Setting [9] is: dose: 200.0 mg/kg/injection, schedule: Q01DX009 (ip), vehicle: Klucel (hydroxypropylcellulose) (HPC).
The mark [10] stands for this setting: dose: 6.25 mg/kg/injection, schedule: Q01DX009 (ip), vehicle: saline with Tween-80.
Setting [11] is: dose: 25.0 mg/kg/injection, schedule: Q01DX009 (ip), vehicle: saline.
[12] abbreviates: dose: 50.0 mg/kg/injection, schedule: Q01DX009 (ip), vehicle: saline.
[13] abbreviates: dose: 100.0 mg/kg/injection, schedule: Q04DX003 (ip), vehicle: saline.
The mark [14] stands for this setting: dose: 200.0 mg/kg/injection, schedule: Q04DX003 (ip), vehicle: saline.
Setting [15] is: dose: 400.0 mg/kg/injection, schedule: Q04DX003 (ip), vehicle: saline.
Where [16] appears, read: dose: 100.0 mg/kg/injection, schedule: Q01DX009 (ip), vehicle: Klucel (hydroxypropylcellulose) (HPC).
Setting [17] is: dose: 50.0 mg/kg/injection, schedule: Q01DX009 (ip), vehicle: suspension in saline.
Setting [18] is: dose: 100.0 mg/kg/injection, schedule: Q01DX009 (ip), vehicle: suspension in saline.
Setting [19] is: dose: 100.0 mg/kg/injection, schedule: Q01DX009 (ip), vehicle: saline with Tween-80.

With `O=Cc1cccc(CC(O)(C(F)(F)F)C(F)(F)F)n1`, the T/C is, setting by setting: under setting [1], 95 % of control; (dose: 12.5 mg/kg/injection, schedule: Q04DX003 (ip), vehicle: saline with Tween-80) 100 % of control; under setting [2], 100 % of control; under setting [3], 100 % of control; under setting [4], 100 % of control; under setting [5], 95 % of control.

`c1ccc(CNCc2ccccc2)cc1`: the T/C (dose: 50.0 mg/kg/injection, schedule: Q04DX003 (ip), vehicle: Klucel (hydroxypropylcellulose) (HPC)) is 95 % of control; the T/C under setting [6] is 95 % of control; the T/C under setting [7] is 100 % of control.

As for `c1ccc(-c2cnc3cccnc3n2)cc1`, the T/C was 100 % of control (dose: 60.0 mg/kg/injection, schedule: Q01DX005 (ip), vehicle: Klucel (hydroxypropylcellulose) (HPC)) and 99 % of control (dose: 120.0 mg/kg/injection, schedule: Q01DX005 (ip), vehicle: Klucel (hydroxypropylcellulose) (HPC)).

As for `Cc1ccc(C(=O)C[n+]2ccccc2)c(O)c1`, the T/C is, setting by setting: (dose: 60.0 mg/kg/injection, schedule: Q01DX005 (ip), vehicle: saline with Tween-80) 98 % of control; (dose: 120.0 mg/kg/injection, schedule: Q01DX005 (ip), vehicle: saline with Tween-80) 100 % of control.

Consider `COc1cc2c(cc1OC)C13CCN4C(=O)C(=O)C(CC41)C1C(OCC(=O)O)CC(=O)N2C13` (stereo not given), for which the T/C was 101 % of control (dose: 60.0 mg/kg/injection, schedule: Q01DX005 (ip), vehicle: saline); 101 % of control (dose: 120.0 mg/kg/injection, schedule: Q01DX005 (ip), vehicle: saline); 100 % of control (dose: 240.0 mg/kg/injection, schedule: Q01DX005 (ip), vehicle: saline).

With `O=C(O)CCCNC(=O)Cc1ccccc1`, the T/C reads like this: (dose: 50.0 mg/kg/injection, schedule: Q01DX005 (ip), vehicle: saline) 93 % of control; (dose: 100.0 mg/kg/injection, schedule: Q01DX005 (ip), vehicle: saline) 90 % of control.

As for `COc1cc2c(cc1OC)[C@H]1[C@H](CO)c3ccc4c(c3CN1CC2)OCO4`, the T/C was 100 % of control (dose: 12.5 mg/kg/injection, schedule: Q01DX005 (ip), vehicle: Klucel (hydroxypropylcellulose) (HPC)); 96 % of control (dose: 25.0 mg/kg/injection, schedule: Q01DX005 (ip), vehicle: Klucel (hydroxypropylcellulose) (HPC)); 94 % of control and 96 % of control (dose: 50.0 mg/kg/injection, schedule: Q01DX005 (ip), vehicle: Klucel (hydroxypropylcellulose) (HPC)).

Turning to `Cc1n[nH]c(=O)[nH]c1=O`, the T/C was 100 % of control under setting [6]; 100 % of control under setting [7]; 90 % of control (dose: 400.0 mg/kg/injection, schedule: Q04DX003 (ip), vehicle: Klucel (hydroxypropylcellulose) (HPC)).

As to `Cc1ccnc(NS(=O)(=O)c2ccc(N=CC3C(=O)N(c4ccccc4)N(c4ccccc4)C3=O)cc2)n1`, the T/C by setting is: under setting [8], 96 % of control; under setting [9], 101 % of control.

Turning to `O=[N+]([O-])c1c(Sc2ncccn2)ncnc1Sc1ncccn1`, the T/C is, setting by setting: (dose: 3.12 mg/kg/injection, schedule: Q01DX009 (ip), vehicle: saline with Tween-80) 105 % of control; under setting [10], 115 % of control; under setting [1], 113 % of control; (dose: 12.5 mg/kg/injection, schedule: Q01DX009 (ip), vehicle: saline) 114 % of control; under setting [11], 114 % of control; under setting [12], 108 % of control.

As for `O=c1sc2ncccc2n1-c1ccc([N+](=O)[O-])cn1`, the T/C was 103 % of control under setting [13], 86 % of control under setting [14] and 89 % of control under setting [15].

As to `c1ccc(-c2nn[nH]n2)cc1`, the T/C is 100 % of control (dose: 25.0 mg/kg/injection, schedule: Q01DX009 (ip), vehicle: Klucel (hydroxypropylcellulose) (HPC)); 100 % of control under setting [8]; 118 % of control under setting [16]; 100 % of control under setting [9].

Consider `CC1CN=C(c2ccc(NC(=O)c3ccc(C(=O)Nc4ccc(C5=NCC(C)N5)cc4)cc3)cc2)N1` (stereo not given), for which the T/C is 184 % of control (dose: 6.25 mg/kg/injection, schedule: Q01DX009 (ip), vehicle: suspension in saline); 209 % of control (dose: 10.0 mg/kg/injection, schedule: Q01DX010 (ip), vehicle: saline); 245 % of control (dose: 12.5 mg/kg/injection, schedule: Q01DX009 (ip), vehicle: suspension in saline); 231 % of control (dose: 15.0 mg/kg/injection, schedule: Q01DX010 (ip), vehicle: saline); 154 % of control (dose: 22.0 mg/kg/injection, schedule: Q01DX010 (ip), vehicle: saline); 294 % of control (dose: 25.0 mg/kg/injection, schedule: Q01DX009 (ip), vehicle: suspension in saline). Moreover, the T/C is 209 % of control (dose: 33.0 mg/kg/injection, schedule: Q01DX010 (ip), vehicle: saline); 166 % of control under setting [17]; 154 % of control under setting [18].

Turning to `CSCC1Cc2ccccc2N=C(c2ccccc2)O1` (stereo not given), the T/C is, setting by setting: (dose: 100.0 mg/kg/injection, schedule: Q01DX001 (ip), vehicle: saline with Tween-80) 100 % of control; (dose: 200.0 mg/kg/injection, schedule: Q01DX001 (ip), vehicle: saline with Tween-80) 97 % of control; (dose: 400.0 mg/kg/injection, schedule: Q01DX001 (ip), vehicle: saline with Tween-80) 100 % of control.

`COc1ccc(Cc2nncc3ccccc23)cc1OC`: the T/C is, setting by setting: under setting [10], 107 % of control; under setting [1], 107 % of control; under setting [2], 105 % of control; under setting [19], 95 % of control; (dose: 200.0 mg/kg/injection, schedule: Q01DX009 (ip), vehicle: saline with Tween-80) 104 % of control.

For the molecule `N#C/C(=N\Nc1ccccc1)C(N)=S`, the T/C by setting is: (dose: 12.5 mg/kg/injection, schedule: Q01DX009 (ip), vehicle: other) 109 % of control; (dose: 25.0 mg/kg/injection, schedule: Q01DX009 (ip), vehicle: other) 93 % of control; (dose: 50.0 mg/kg/injection, schedule: Q01DX009 (ip), vehicle: other) 91 % of control.

Consider `Cc1ccc(NCCNCCO)c2c1C(=O)c1ccccc1C2=O`, for which the T/C is, setting by setting: under setting [11], 100 % of control and 87 % of control; under setting [12], 99 % of control and 89 % of control; under setting [17], 116 % of control; (dose: 100.0 mg/kg/injection, schedule: Q01DX009 (ip), vehicle: saline) 101 % of control and 90 % of control; under setting [18], 122 % of control; (dose: 200.0 mg/kg/injection, schedule: Q01DX009 (ip), vehicle: saline) 87 % of control and 95 % of control. Also, where the note is “dose: 200.0 mg/kg/injection, schedule: Q01DX009 (ip), vehicle: suspension in saline”, the T/C was 151 % of control.

Turning to `CCOC(=O)NC(NC(=O)OCC)c1ccc(Cl)cc1`, the T/C under setting [13] is 99 % of control, the T/C under setting [14] was 94 % of control and the T/C under setting [15] is 107 % of control.

Turning to `CCOC=Nc1c(N)ncnc1Cl`, the T/C is 102 % of control under setting [16]; 105 % of control under setting [9]; 106 % of control (dose: 400.0 mg/kg/injection, schedule: Q01DX009 (ip), vehicle: Klucel (hydroxypropylcellulose) (HPC)).

In the case of `CS(=O)(=O)OCCN(CCOS(C)(=O)=O)c1cccc(C(F)(F)F)c1`, the T/C was 100 % of control (dose: 0.75 mg/kg/injection, schedule: Q04DX003 (ip), vehicle: saline); 100 % of control (dose: 1.5 mg/kg/injection, schedule: Q04DX003 (ip), vehicle: saline); 100 % of control (dose: 3.0 mg/kg/injection, schedule: Q04DX003 (ip), vehicle: saline); 170 % of control and 212 % of control under setting [3]; 159 % of control under setting [4]; 216 % of control under setting [5]. Also, the T/C is 213 % of control under setting [19] and 87 % of control (dose: 100.0 mg/kg/injection, schedule: Q04DX003 (ip), vehicle: saline with Tween-80).

These data come from PubChem BioAssay AID330 (DTP/NCI, 2004).
